From paper PMC11173533, “Baicalin and Baicalein Enhance Cytotoxicity, Proapoptotic Activity, and Genotoxicity of Doxorubicin and Docetaxel in MCF-7 Breast Cancer Cells” (Molecules, 2024) come the findings set out here.

Common to all, as to format: cell-based, human
The test system of data set [1] is HUVEC-ST cells. Description: Annexin V FITC/propidium iodide double staining in HUVEC-ST cells. Conditions: docetaxel IC50 alone. As to the method: (§1) Unless otherwise indicated, in experiments, cells were seeded at an appropriate density for the specific assay into 96-well plates or Petri dishes. They were then incubated in standard culture conditions, which included a temperature of 37 °C, 100% relative humidity, and a 5% CO2 incubator. […] After treatment, the cells were washed with PBS and, depending on the experiment, immediately used for measurement or cultured in a fresh medium for 24 or 48 h. Control cells were treated with a corresponding volume of PBS. Additional controls for solvents were also performed.
(§2) This assay is based on the principle that, in viable cells, phosphatidylserine (PS) is located in the inner membrane (side facing the cytoplasm). However, upon induction of apoptosis, PS is translocated to the outer membrane (PS also appears on the necrotic cell surface). The exposed phosphatidylserine can be detected by protein Annexin V stained with FITC dye. The addition of propidium iodide (PI) enabled necrotic cells to be distinguished. Thus, this method is convenient for counting and differentiating live cells from those undergoing apoptosis or necrosis.
(§3) The analysis was performed according to the manufacturer’s protocol on cells immediately after the treatment and 24 or 48 h postincubation. Samples were analyzed using the flow cytometer LSR® II from Becton Dickinson (San Jose, CA, USA) using an argon laser with a wavelength of λ = 488 nm.

Data set [2] has as its system HUVEC-ST cells. Description: Mitochondrial membrane potential (JC-1) in HUVEC-ST cells. Conditions: anticancer drug IC50 alone 2 h, control = 100%. The method, then: as §1
(§4) The mitochondrial membrane potential was measured with the membrane-permeant JC-1 fluorescent probe. […] Thus, the measurement of the ratio of JC-1 dimer to monomer fluorescence can be used for estimating changes in mitochondrial membrane potential (ΔΨm).
(§5) The cells were then incubated in complete darkness for 30 min at 37 °C. After incubation, the cells were washed to remove the dye and suspended in fresh HBSS solution. Finally, the fluorescence intensity was measured using a Cary Eclipse spectrofluorometer (Varian, Inc.) at λex/em = 475 nm/530 nm for monomers and at λex/em = 535 nm/590 nm for dimers. Subsequently, the ratio of the fluorescence intensities at 530 nm/590 nm was calculated. The mitochondrial potential in both cell lines was measured immediately after incubation with investigated compounds. The results are expressed as a percentage of the control, considered 100%.

Data set [3] has as its system MCF-7 cells. Description: MTT cell viability assay on MCF-7 cells. Conditions: for IC50: Homo sapiens, MCF7, 2 h incubation, breast cancer cells, used for both cell lines, read-out: Drug IC50 concentration from MTT survival curves; for Concentrations giving statistically significant decrease in survival: MCF-7, 2 h incubation with anticancer drug, MTT. The method, then:
as §1
(§6) The principle of the method is a measurement of the absorbance of formazan, a product of the reduction of the water-soluble tetrazolium salt (MTT) by NADPH-dependent cellular oxidoreductases (mainly succinate dehydrogenase) in living cells. Formazan is insoluble in water and precipitates as purple crystals. The amount of formazan is proportional to the number of living and metabolically active cells.
(§7) After treatment, the cells were washed with PBS and cultured in a fresh medium for 48 h. Subsequently, the medium was aspirated, and an aliquot of 50 µL of 0.05 mg/mL MTT solution was added to each microplate well for 3 h. The formazan crystals were dissolved in dimethyl sulfoxide (DMSO), and the absorbance was measured at a wavelength of λ = 580 nm. The percentage of viable cells was calculated by comparing the absorbance value of the test samples to the absorbance value of the control, taking the absorbance of the control as 100%.

The subject of data set [4] is MCF-7 cells. Briefly: Mitochondrial membrane potential (JC-1) in MCF-7 cells. Conditions: anticancer drug IC50 alone 2 h, control = 100%. The method, then: as §1, §4, §5
For data set [5], the system named is MCF-7 cells. Description: Annexin V FITC/propidium iodide double staining in MCF-7 cells. Conditions: for Viable cells: docetaxel IC50 alone. As to the method: as §1, §2, §3
The test system of data set [6] is HUVEC-ST cells. Briefly: MTT cell viability assay on HUVEC-ST cells. Conditions: HUVEC-ST, MTT. The method, then:
as §1, §6, §7

A short description of data set [7]: Annexin V FITC/propidium iodide double staining in HUVEC-ST cells. Conditions: human, HUVEC-ST cells, doxorubicin IC50 alone, longest postincubation time (48 h), read-out: Viable cells. The method, then: as §1, §2, §3
The test system of data set [8] is HUVEC-ST cells. Description: Alkaline comet assay in HUVEC-ST cells. Conditions: doxorubicin IC50 alone, 48 h after incubation. The method, then:
as §1
The comet assay, also known as the single-cell gel electrophoresis assay, is a highly sensitive and versatile method for measuring single- and double-stranded DNA breaks. The assay uses an electric field to move negatively charged DNA fragments through an agarose gel. The amount of migration reflects the level of DNA damage in the cells.
The analysis was performed under alkaline conditions, according to the method of Singh et al., on cells immediately after the treatment and 24 or 48 h postincubation. A suspension of cells was mixed with low-melting-point agarose (LMP type XI) and spread onto a microscope glass slide previously coated with standard melting point agarose (NMP type I). After 2 h of cells lysis in a buffer containing (2.5 mol/L NaCl, 100 mmol/L Na2-EDTA, 10 mmol/L TRIS, 1% Triton X-100), DNA unwinding and electrophoresis were carried out in a buffer containing (1 mmol/L Na2-EDTA, 300 mmol/L NaOH) and (29 V, 30 mA). Before analysis, the slides were stained with DAPI solution (2 μg/mL). One hundred randomly chosen cells were analyzed on each slide using a fluorescence microscope Zeiss Axio Scope A1 (Carl Zeiss, Oberkochen, Germany) with a video camera connected to the image-analysis system Lucia-Comet v. 7.60 (Laboratory Imaging, Praha, Czech Republic).

As to `CC(=O)O[C@@]12CO[C@@H]1C[C@H](O)[C@@]1(C)C(=O)[C@H](O)C3=C(C)[C@@H](OC(=O)[C@H](O)[C@@H](NC(=O)OC(C)(C)C)c4ccccc4)C[C@@](O)([C@@H](OC(=O)c4ccccc4)[C@H]21)C3(C)C` [docetaxel], the “AV+/PI+ cells” value is given as 23% in the data set on HUVEC-ST cells [1] (24 h after incubation) and 26% in the data set on HUVEC-ST cells [1] (longest postincubation time (48 h)). Further, the “Mitochondrial membrane potential ΔΨm, % of control” value in the data set on HUVEC-ST cells [2] is 54%; in the data set with MCF-7 cells [4], 65%. Moreover, in the data set with MCF-7 cells [3], the IC50 stood at 0.1 µM. The “Concentrations giving statistically significant decrease in survival” value in the data set with MCF-7 cells [3] is on record as at least 0.02 µmol/L. Moreover, the Viable cells came out at 53% in the data set with MCF-7 cells [5] (24 h after incubation) and 43% with MCF-7 cells [5] (48 h after incubation). Besides, the “Decrease in survival at highest concentration” value in the data set with HUVEC-ST cells [6] (6 µmol/L, 2 h incubation) worked out at 20%.
Turning to `COc1cccc2c1C(=O)c1c(O)c3c(c(O)c1C2=O)C[C@@](O)(C(=O)CO)C[C@@H]3O[C@H]1C[C@H](N)[C@H](O)[C@H](C)O1` [doxorubicin, Doxorubicin], the viability in data set [7] came out at 47%. Also, the “Mitochondrial membrane potential ΔΨm, % of control” value with HUVEC-ST cells [2] amounted to 73%; in the data set on MCF-7 cells [4], 57%. For the same molecule, in the data set on MCF-7 cells [3], the IC50 is 3 µM. In addition, the “Concentrations giving statistically significant decrease in survival” value with MCF-7 cells [3] is at least 1 µmol/L; in the data set with HUVEC-ST cells [6] (2 h incubation with anticancer drug) it was at least 0.5 µmol/L. The molecule also had a Viable cells in the data set with MCF-7 cells [3] (MCF-7, doxorubicin 3 µmol/L used alone) of 54%. The “AV+/PI− cells (undergoing apoptosis)” value with MCF-7 cells [5] (doxorubicin IC50 alone, 48 h post-incubation) was found to be 12%. For the same molecule, in the data set on HUVEC-ST cells [8], the “DNA in the comet tail” value is 10%.
